Laboratory results as given in US12590098B2, “Pyrimido pyrimidinone compound and pharmaceutical composition comprising the same” (AXCESO BIOPHARMA CO., LTD., priority 2020, dated 2026).

Legend:
PD-L1 expression [1] = assay: PD-L1 promoter-luciferase reporter assay in A549 pGL4.14-PD-L1 cell line; assay type: cell-based; details: Homo sapiens, IFNγ (50 ng/ml) inducer, luminometer, read-out: PD-L1 expression inhibition rate in A549 (%)
Procedure: The PD-L1 promoter gene region was inserted into the pGL4.14-[luc2/Hygro] vector (promega, Madison, WI) in the following way to prepare a promoter-reporter construct for measuring gene transcription activity.
After preparing primer including KpnI and Xhol restriction enzyme sites in PD-L1, PCR (polymerase chain reaction) was performed, and promoter region DNA was separated by performing electrophoresis on an agarose gel. The pGL4.14-[1uc2/Hygro] vector containing firefly luciferase as a reporter gene was treated with the same restriction enzyme, and separated by agarose gel electrophoresis and gel extraction. The pure isolated PD-L1 promoter gene region and the pGL4.14-[luc2/Hygro] vector were reacted at 50° C. for 1 hour using in-fusion DNA ligase (Takara), followed by E. coli transformation to prepare a promoter-reporter construct into which the […] promoter was inserted, which was named pGL4.14-PD-L1.
To measure the transcriptional activity of the PD-L1 gene promoter, A549 cells were transiently transfected with the PD-L1 promoter-reporter construct as follows, and then the luciferase activity of the cell extract was measured.
The DNA-lipofectamine complex was prepared according to the manufacturer's protocol using 0.1 μtg of promoter-reporter construct plasmid and Lipofectamine 2000 reagent (Invitrogen). Opti-MEM medium (Invitrogen) was used in the process of forming a complex between DNA and Lipofectamine 2000. A549 cells were prepared at 2.5×10^5 cells per well (1 ml) in a 12-well plate by checking the number of cells immediately before adding the DNA. The DNA-lipofectamine complex was carefully mixed with A549 cells and reacted in an incubator at 37° C. for 6 hours. Thereafter, the medium was changed to search for transfected cells, and PD-L1-transfected A549 cells were found through a luciferase test. This was named A549 pGL4.14-PD-L1 cell line and the experiment was conducted. IFNγ (50 ng/ml) was used as a PD-L1 inducer.
The A549 pGL4.14-PD-L1 cell line was treated with the pyrimido pyrimidinone derivatives of Example at concentrations of 0.1 μM and 1.0 μM, respectively, and PD-L1 expression inhibition was evaluated using a luminometer. For comparison, the same experiment was performed for GS9973 (Entospletinib) known to have PD-L1 expression inhibitory activity.
The inhibition rate of PD-L1 expression was calculated by Equation 1 below. PD-L1 expression inhibition rate (%)=100−[(A/B)×100] [Equation 1]
wherein, A is a value when treated with a drug, and B is a value when not treated with a drug.

PD-L1 = assay: Western-blot analysis of PD-L1 in tumors excised from B16F10 mice; set-up: species or system mouse; details: tumors extracted from mice after the in vivo test of Experimental Example 2; FIG. 3
Excerpt: After the in vivo tumor inhibition test using compound 1-8 of Experimental Example 2, the PD-L1 expression inhibition effect in tumor cells extracted from mice was confirmed through Western-blot analysis. For comparison, the efficacy of inhibiting PD-L1 expression in tumor cells extracted from the control mice was also confirmed through Western-blot analysis.
Proteins were identified with the ChemiDoc™ imaging system (Bio-rad) using a chemiluminescence (ECL) kit (elpis biotec, EBP-1073).

melanoma cell = details: melanoma model; cited from earlier work
PD-L1 expression [2] = details: melanoma model; cited from earlier work
[3] = test system: cell surface PD-L1 expression; details: kinase inhibitor library screening, melanoma; cited from earlier work

SMILES | inhibition at 0.1 µM (PD-L1 expression [1]) [%] | inhibition at 1 µM (PD-L1 expression [1]) [%] | also measured
Cc1ncc(NC(=O)c2cccc(C(F)(F)F)c2)cc1N1Cc2cnc(Nc3ccccc3)nc2N(C)C1=O [Compound I-1, N-(6-methyl-5-(1-methyl-2-oxo-7-(phenylamino)-1,2-dihydropyrimido[4,5-d]pyrimidin-3(4H)-yl)pyridin-3-yl)-3-(trifluoromethyl)benzamide] | 12.8 | 87.1 | –
Cc1ncc(NC(=O)c2cccc(C(C)(C)C)c2)cc1N1Cc2cnc(Nc3ccccc3)nc2N(C)C1=O [Compound I-2, 3-(t-butyl)-N-(6-methyl-5-(1-methyl-2-oxo-7-(phenylamino)-1,2-dihydropyrimido[4,5-d]pyrimidin-3(4H)-yl)pyridin-3-yl)benzamide] | 32.6 | 72.5 | –
COc1ncc(NC(=O)c2cccc(C(F)(F)F)c2)cc1N1Cc2cnc(Nc3ccccc3)nc2N(C)C1=O [Compound I-3, N-(6-methoxy-5-(1-methyl-2-oxo-7-(phenylamino)-1,2-dihydropyrimido[4,5-d]pyrimidin-3(4H)-yl)pyridin-3-yl)-3-(trifluoromethyl)benzamide] | 29.3 | 92.5 | –
Cc1ncc(NC(=O)c2ccc(C3=NC(C)(C)CO3)cc2)cc1N1Cc2cnc(Nc3ccccc3)nc2N(C)C1=O [Compound I-4, 4-(4,4-dimethyl-4,5-dihydrooxazol-2-yl)-N-(6-methyl-5-(1-methyl-2-oxo-7-(phenylamino)-1,2-dihydropyrimido[4,5-d]pyrimidin-3(4H)-yl)pyridin-3-yl)benzamide] | 20.1 | 82.5 | –
Cc1ncc(NC(=O)c2cccc(C3=NC(C)(C)CO3)c2)cc1N1Cc2cnc(Nc3ccccc3)nc2N(C)C1=O [Compound I-5, 3-(4,4-dimethyl-4,5-dihydrooxazol-2-yl)-N-(6-methyl-5-(1-methyl-2-oxo-7-(phenylamino)-1,2-dihydropyrimido[4,5-d]pyrimidin-3(4H)-yl)pyridin-3-yl)benzamide] | 19.4 | 81.9 | –
COc1ncc(NC(=O)c2cccc(C(C)(C)C)c2)cc1N1Cc2cnc(Nc3ccccc3)nc2N(C)C1=O [Compound I-6, 3-(t-butyl)-N-(6-methoxy-5-(1-methyl-2-oxo-7-(phenylamino)-1,2-dihydropyrimido[4,5-d]pyrimidin-3(4H)-yl)pyridin-3-yl)benzamide] | 13.9 | 94.1 | –
COc1ncc(NC(=O)c2cccc(C3=NC(C)(C)CO3)c2)cc1N1Cc2cnc(Nc3ccccc3)nc2N(C)C1=O [Compound I-7, 3-(4,4-dimethyl-4,5-dihydrooxazol-2-yl)-N-(6-methoxy-5-(1-methyl-2-oxo-7-(phenylamino)-1,2-dihydropyrimido[4,5-d]pyrimidin-3(4H)-yl)pyridin-3-yl)benzamide] | 13.1 | 85.3 | –
CN1C(=O)N(c2cc(NC(=O)c3cccc(C(F)(F)F)c3)cnc2Cl)Cc2cnc(Nc3ccccc3)nc21 [Compound I-8, N-(6-chloro-5-(1-methyl-2-oxo-7-(phenylamino)-1,2-dihydropyrimido[4,5-d]pyrimidin-3(4H)-yl)pyridin-3-yl)-3-(trifluoromethyl)benzamide] | 60.4 | 97.5 | expression of PD-L1 in tumor compared to the control group (Western blot) (PD-L1): reduced
CN1C(=O)N(c2cc(NC(=O)c3cccc(C(C)(C)C)c3)cnc2Cl)Cc2cnc(Nc3ccccc3)nc21 [Compound I-9, 3-(t-butyl)-N-(6-chloro-5-(1-methyl-2-oxo-7-(phenylamino)-1,2-dihydropyrimido[4,5-d]pyrimidin-3(4H)-yl)pyridin-3-yl)benzamide] | 48.8 | 97.2 | –
CN1C(=O)N(c2cc(NC(=O)c3csc(C(C)(C)C)n3)cnc2Cl)Cc2cnc(Nc3ccccc3)nc21 [Compound I-10, 2-(t-butyl)-N-(6-chloro-5-(1-methyl-2-oxo-7-(phenylamino)-1,2-dihydropyrimido[4,5-d]pyrimidin-3(4H)-yl)pyridin-3-yl)thiazole-4-carboxamide] | 67 | 98 | –
CN1C(=O)N(c2cc(NC(=O)c3cccc(C(F)(F)F)c3)cnc2Cl)Cc2cnc(Nc3ccc(O)cc3)nc21 [Compound I-11, N-(6-chloro-5-(7-((4-hydroxyphenyl)amino)-1-methyl-2-oxo-1,2-dihydropyrimido[4,5-d]pyrimidin-3(4H)-yl)pyridin-3-yl)-3-(trifluoromethyl)benzamide] | 65 | 98 | –
c1cn2cc(-c3ccc4cn[nH]c4c3)nc(Nc3ccc(N4CCOCC4)cc3)c2n1 [GS9973(Entospletinib), Entospletinib, reference compound] | 10.3 | 47.1 | –
O=c1cc(-c2ccc(O)cc2)oc2cc(O)cc(O)c12 [apigenin] | – | – | melanoma cell growth inhibitory effects (melanoma cell): melanoma cell growth inhibitory effects; suppression of PD-L1 expression induced by IFN-γ (PD-L1 expression [2]): significantly suppress
COc1cc(/C=C/C(=O)CC(=O)/C=C/c2ccc(O)c(OC)c2)ccc1O [curcumin] | – | – | melanoma cell growth inhibitory effects (melanoma cell): melanoma cell growth inhibitory effects
CNC(=O)c1cc(Oc2ccc(NC(=O)Nc3ccc(Cl)c(C(F)(F)F)c3)c(F)c2)ccn1 [regorafenib] | – | – | reduction of cell surface PD-L1 expression level [3]: more than 50%
